Each structure is given as a SMILES string. Read-outs that look alike come from different tables or passages of the source. Bounds are passed on as bounds.

One assay has as its system SU-DHL-10 cells. The experiment in a line: Cell cytotoxicity in SU-DHL-10 cell line (CellTiter-Glo). It is filed as cell-based. Conditions: Homo sapiens, read-out: SU-DHL-10 EC50. On the procedure:
Assay (c): Cell Cytotoxicity in SU-DHL-10 Cell Line
Cell Culture: SU-DHL-10 (ATCC CRL-2963) were cultured in RPMI-media (ATCC, 30-2001).
Cultures were maintained by the addition of fresh medium and inoculum of 8.0×10^4 to 2.0×10^5 cells/mL. Subculturing was done when the cell density was between 1.0×10^6 and 2.0×10^6 cells/mL.
Cell seeding: 5000 cells/well were plated in 384-white clear bottom plates (Greiner, 781098) for the assay in 20 μl growth media.
Top dose: 1 mM stocks of each compound was prepared in 100% DMSO and thereafter diluted 333.33 fold in growth media to obtain 3 μM (0.3% DMSO) mid stock of each compound, from which 10 μl was added to assay wells (with 20 μl cells) for a final concentration of 1 μM (0.1% DMSO). For subsequent dose-response: 1 mM stock was diluted 3 fold in DMSO before subjecting to above dilution pattern to obtain final 0.1% DMSO concentration.
Treatment: Cells were incubated with the compounds for 48 h at 37° C. in presence of 5% CO2.
Assay Procedure: The assay plate and its contents were equilibrated at room temperature for approximately 30 minutes. CellTiter-Glo® Reagent was added equal to the volume (1;1) of cell culture medium present in each well. The contents were mixed for 5 minutes on an orbital shaker to induce cell lysis. The plate was allowed to incubate at room temperature for 10 minutes to stabilize luminescent signal. The luminescence was recorded with an integration time of 0.25 seconds in EnVision 2104 Multilabel Plate Reader (Perkin Elmer).
Calculation: % Cytotoxicity was calculated considering 100% cell death in wells treated with 0.1% TritonX.

For a further assay, the target named is Human NMT1 (HsNMT1) (Homo sapiens, UniProt P30419). The experiment in a line: biochemical.
Human NMT1 (HsNMT1), sequence (P30419 whole entry, looked up): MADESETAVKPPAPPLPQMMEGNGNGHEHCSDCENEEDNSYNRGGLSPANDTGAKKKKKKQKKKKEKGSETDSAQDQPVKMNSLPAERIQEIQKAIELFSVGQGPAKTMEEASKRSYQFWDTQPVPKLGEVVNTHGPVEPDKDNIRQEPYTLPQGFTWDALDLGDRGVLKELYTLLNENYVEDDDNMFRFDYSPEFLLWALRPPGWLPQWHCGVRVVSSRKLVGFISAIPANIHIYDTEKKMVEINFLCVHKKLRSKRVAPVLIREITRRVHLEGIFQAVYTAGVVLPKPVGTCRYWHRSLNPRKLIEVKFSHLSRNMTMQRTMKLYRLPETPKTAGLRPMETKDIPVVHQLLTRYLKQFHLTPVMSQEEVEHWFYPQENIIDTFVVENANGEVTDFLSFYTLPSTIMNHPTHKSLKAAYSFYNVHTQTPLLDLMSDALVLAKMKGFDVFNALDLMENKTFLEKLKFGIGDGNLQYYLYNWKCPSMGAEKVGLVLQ
Assay [1] concerns Plasmodium falciparum 3D7. Kind of assay: SYBR Green assay, Plasmodium falciparum strain 3D7. It is filed as cell-based. Conditions: P. falciparum strain 3D7, 96 h incubation, read-out: Pf EC50 strain 3D7.
Method: Assay (g): SYBR Green Assay
EC50 values for Plasmodium falciparum (Pf) NMT strain 3D7 or NF54 were measured for certain compounds of the invention using an assay utilising SYBR Green dye. The assay for NMT strain 3D7 was carried out as follows:
Synchronous Plasmodium falciparum 3D7 late stage trophozoites at 33-36 h were used. Final parasitemia and haematocrit were between 0.1-0.2% and 2% respectively. Red blood cells used for the assay were centrifuged to remove the buffy coat and washed twice in Roswell Park Memorial Institute (RPMI) Media 1640 so that no white blood cells were present. The culture medium contained RPMI 1640 with 5 g/L Albumax, 0.025 g/L gentamycin and 0.292 g/L L-glutamine.
Sterile 96 well black tissue culture plates (Costar) were used routinely for every assay. […] Chloroquine was used as a standard with ten times reduced concentrations range as above. Two sets of control were used in duplicate wells, one set with no added compound of the invention or standard (positive control) and one with uninfected red blood cells (negative control).
The plates were incubated at 37° C. for 48 h in a gas chamber flushed with 5% CO2, 5% O2 and 90% N2. After 48 h supernatants were taken out from each well and replaced with fresh drug and incubated for a further 48 h in the same manner. At the end of the 96 h incubation, 25 μL of SYBR Green I dye (SYBR Green I nucleic acid gel stain 10,000×, in DMSO from Invitrogen) in lysis buffer (1 μL dye to 1 mL lysis buffer) was added to each well and stored overnight at −20° C. The lysis buffer contained Tris (20 mM, pH 8.0), EDTA (2 mM), Saponin (0.16%) and Triton X-100 (1.6% v/v).
Plates were warmed to room temperature and fluorescence intensity was measured with a FLUOstar Omega Microplate fluorescence reader (BMG Labtech). Values were expressed in relative fluorescence units. Binding of SYBR Green is specific for parasite DNA as mature erythrocytes lack DNA and RNA. Fluorescence intensity unit was converted to percentage (%) of growth as follows:
% growth=(culture under drug)−(uninfected RBC)/(culture with no drug)−(uninfected RBC)×100
and the EC50 value was determined.
Assay [2] concerns the target Plasmodium vivax (Pv) NMT (Plasmodium vivax (strain Salvador I), UniProt A5K1A2). Kind of assay: biochemical.

Plasmodium vivax (Pv) NMT, sequence (A5K1A2 1-410): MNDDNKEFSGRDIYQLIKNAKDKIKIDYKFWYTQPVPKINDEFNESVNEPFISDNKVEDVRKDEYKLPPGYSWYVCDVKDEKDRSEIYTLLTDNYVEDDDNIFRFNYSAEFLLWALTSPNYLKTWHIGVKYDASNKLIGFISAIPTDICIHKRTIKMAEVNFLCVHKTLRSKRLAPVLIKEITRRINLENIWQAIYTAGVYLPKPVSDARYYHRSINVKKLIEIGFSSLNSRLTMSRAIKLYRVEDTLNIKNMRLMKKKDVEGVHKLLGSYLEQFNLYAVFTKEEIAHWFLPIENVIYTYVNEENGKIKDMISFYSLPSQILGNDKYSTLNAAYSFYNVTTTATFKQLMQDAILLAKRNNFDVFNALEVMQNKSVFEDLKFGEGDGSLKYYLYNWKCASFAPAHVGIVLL

A word on the EC50: it is the concentration giving half of the maximal effect. What is called IC50 is the midpoint of a concentration-inhibition curve. Higher therefore signals lower potency. For the compound `C[C@@H]1CNCCN1c1ncc(Cl)c(N2CC(C(=O)N(C)C(C)(C)c3cnc4ccccn34)C2)n1` [Example 138, (R)-1-(5-chloro-2-(2-methylpiperazin-1-yl)pyrimidin-4-yl)-N-(2-(Imidazo[1,2-a]pyridin-3-yl)propan-2-yl)-N-methylazetidine-3-carboxamide], the half-maximal effective concentration (EC50) in the assay with SU-DHL-10 cells (SU-DHL10, CellTiter-Glo, 48 h) was determined as 0.742 µM. Further, the IC50 at Human NMT1 (HsNMT1) came to 0.015 µM.

Turning to `CN(C(=O)C1CN(c2nc(N3CCCNCC3)ncc2Cl)C1)C(C)(C)c1cnc2ccccn12` [Example 120, 1-(5-chloro-2-(1,4-diazepan-1-yl)pyrimidin-4-yl)-N-(2-(Imidazo[1,2-a]pyridin-3-yl)propan-2-yl)-N-methylazetidine-3-carboxamide], the EC50 in the assay with SU-DHL-10 cells (SU-DHL10, CellTiter-Glo, 48 h) was 0.545 µM.

As to `C[C@@H]1CN(C)CCN1c1ncc(Cl)c(N2CC(C(=O)N(C)C(C)(C)c3cnc4ccccn34)C2)n1` [Example 142, (R)-1-(5-chloro-2-(2,4-dimethylpiperazin-1-yl)pyrimidin-4-yl)-N-(2-(imidazo[1,2-a]pyridin-3-yl)propan-2-yl)-N-methylazetidine-3-carboxamide], in the assay with SU-DHL-10 cells (SU-DHL10, CellTiter-Glo, 48 h), the EC50 came out at 0.489 µM. This compound also returned an IC50 against Human NMT1 (HsNMT1) of 0.178 µM.

`Cc1cc2nc(N3CCCN(C)CC3)nc(N3CC(C(=O)NC(C)(C)c4cnc5ccccn45)C3)c2s1` [Example 116, N-(2-(imidazo[1,2-a]pyridin-3-yl)propan-2-yl)-1-(6-methyl-2-(4-methyl-1,4-diazepan-1-yl)thieno[3,2-d]pyrimidin-4-yl)azetidine-3-carboxamide]: in the assay on SU-DHL-10 cells (SU-DHL10, 48 h), the EC50 amounted to 0.074 µM. Further, the concentration for half-maximal inhibition (IC50) on Human NMT1 (HsNMT1) amounted to 0.006 µM.

Turning to `CN(C(=O)C1CN(c2nc(N3CC4CCC(C3)N4)ncc2Cl)C1)C(C)(C)c1cnc2ccccn12` [Example 133, 1-(2-(3,8-diazabicyclo[3.2.1]octan-3-yl)-5-chloropyrimidin-4-yl)-N-(2-(imidazo[1,2-a]pyridin-3-yl)propan-2-yl)-N-methylazetidine-3-carboxamide], in the assay on SU-DHL-10 cells (SU-DHL10, CellTiter-Glo, 48 h), the concentration for a half-maximal effect (EC50) was found to be 0.409 µM. The same compound gave an IC50 against Human NMT1 (HsNMT1) of 0.062 µM.

On to `CN(C(=O)C1CN(c2nc(N3CCNCC3)ncc2Cl)C1)C(C)(C)c1cnc2ccccn12` [Example 119, 1-(5-chloro-2-(piperazin-1-yl)pyrimidin-4-yl)-N-(2-(imidazo[1,2-a]pyridin-3-yl)propan-2-yl)-N-methylazetidine-3-carboxamide], for which, in the assay with SU-DHL-10 cells (SU-DHL10, CellTiter-Glo, 48 h), the EC50 is 0.925 µM.

As for `CN1CCCN(c2nc(N3CC(C(=O)NC(C)(C)c4cnc5ccccn45)C3)c3ccsc3n2)CC1` [Example 113, N-(2-(imidazo[1,2-a]pyridin-3-yl)propan-2-yl)-1-(2-(4-methyl-1,4-diazepan-1-yl)thieno[2,3-d]pyrimidin-4-yl)azetidine-3-carboxamide], in the assay on SU-DHL-10 cells (SU-DHL10, CellTiter-Glo, 48 h), the EC50 came out at 0.033 µM. For the same compound, the concentration for half-maximal inhibition (IC50) on Human NMT1 (HsNMT1) was determined as 0.005 µM.

Regarding `CC1NCCN(c2ncc(Cl)c(N3CC(C(=O)N(C)C(C)(C)c4cnc5ccccn45)C3)n2)C1C` (stereo not shown) [Example 134, 1-(5-chloro-2-(2,3-dimethylpiperazin-1-yl)pyrimidin-4-yl)-N-(2-(Imidazo[1,2-a]pyridin-3-yl)propan-2-yl)-N-methylazetidine-3-carboxamide], in the assay on SU-DHL-10 cells (SU-DHL10, CellTiter-Glo, 48 h), the EC50 turned out to be 0.106 µM. The IC50 against Human NMT1 (HsNMT1) worked out at 0.005 µM.

`C[C@H]1CN(c2ncc(Cl)c(N3CC(C(=O)N(C)C(C)(C)c4cnc5ccccn45)C3)n2)CCN1` [Example 139, (S)-1-(5-chloro-2-(3-methylpiperazin-1-yl)pyrimidin-4-yl)-N-(2-(Imidazo[1,2-a]pyridin-3-yl)propan-2-yl)-N-methylazetidine-3-carboxamide]: the EC50 with SU-DHL-10 cells (SU-DHL10, CellTiter-Glo, 48 h) is 0.542 µM.

Consider `C[C@H]1CNCCN1c1nc(N2CC(C(=O)N(C)C(C)(C)c3cnc4ccccn34)C2)c2sccc2n1` [Example 125, (S)—N-(2-(imidazo[1,2-a]pyridin-3-yl)propan-2-yl)-N-methyl-1-(2-(2-methylpiperazin-1-yl)thieno[3,2-d]pyrimidin-4-yl)azetidine-3-carboxamide], for which the EC50 in the assay with SU-DHL-10 cells (SU-DHL10, CellTiter-Glo, 48 h) came to 0.361 µM.

Consider `CN(C(=O)C1CN(c2nc(N3CCNCC34CC4)ncc2Cl)C1)C(C)(C)c1cnc2ccccn12` [Example 150, 1-(5-chloro-2-(4,7-diazaspiro[2.5]octan-4-yl)pyrimidin-4-yl)-N-(2-(imidazo[1,2-a]pyridin-3-yl)propan-2-yl)-N-methylazetidine-3-carboxamide], for which, in the assay with SU-DHL-10 cells (SU-DHL10, CellTiter-Glo, 48 h), the EC50 was > 1 µM.

In the case of `CN(C(=O)C1CN(c2nc(N3CCNCC3(C)C)ncc2Cl)C1)C(C)(C)c1cnc2ccccn12` [Example 149, 1-(5-chloro-2-(2,2-dimethylpiperazin-1-yl)pyrimidin-4-yl)-N-(2-(Imidazo[1,2-a]pyridin-3-yl)propan-2-yl)-N-methylazetidine-3-carboxamide], in the assay on SU-DHL-10 cells (SU-DHL10, CellTiter-Glo, 48 h), the concentration for a half-maximal effect (EC50) stood at 0.145 µM.

In the case of `C[C@@H]1CN(c2ncc(Cl)c(N3CC(C(=O)N(C)C(C)(C)c4cnc5ccccn45)C3)n2)CCN1` [Example 124, (R)-1-(5-chloro-2-(3-methylpiperazin-1-yl)pyrimidin-4-yl)-N-(2-(Imidazo[1,2-a]pyridin-3-yl)propan-2-yl)-N-methylazetidine-3-carboxamide], the concentration giving a half-maximal response (EC50) with SU-DHL-10 cells (SU-DHL10, CellTiter-Glo, 48 h) was 0.448 µM.

On to `CN(C(=O)C1CN(c2nc(N3CCNC(C)(C)C3)ncc2Cl)C1)C(C)(C)c1cnc2ccccn12` [Example 127, 1-(5-chloro-2-(3,3-dimethylpiperazin-1-yl)pyrimidin-4-yl)-N-(2-(Imidazo[1,2-a]pyridin-3-yl)propan-2-yl)-N-methylazetidine-3-carboxamide], for which the EC50 in the assay with SU-DHL-10 cells (SU-DHL10, CellTiter-Glo, 48 h) is 0.609 µM.

In the case of `Cc1ccc2ncc(C(C)(C)NC(=O)C3CN(c4nc(N5CCN(C)[C@H](C)C5)ncc4F)C3)n2c1` [Example 97, 1-{2-[(3R)-3,4-dimethylpiperazin-1-yl}-5-fluoropyrimidin-4-yl}-N-(2-{6-methylimidazo[1,2-a]pyridin-3-yl}propan-2-yl)azetidine-3-carboxamide], the EC50 in assay [1] worked out at 0.069 µM. The IC50 against Human NMT1 (HsNMT1) is 0.0257 µM; in assay [2], 0.0049 µM.

With `C[C@@H]1CN(c2ncc(Cl)c(N3CC(C(=O)NC(C)(C)c4cnc5ccccn45)C3)n2)C[C@@H](C)N1C` [Example 92, 1-{5-chloro-2-[(3R,5R)-3,4,5-trimethylpiperazin-1-yl]pyrimidin-4-yl}-N-(2-{imidazo[1,2-a]pyridin-3-yl}propan-2-yl)azetidine-3-carboxamide], the EC50 in assay [1] turned out to be 0.26 µM. The IC50 against Human NMT1 (HsNMT1) came out at 0.055 µM; in assay [2], 0.041 µM.

Consider `COc1cnc(N2CCCN(C)CC2)nc1N1CC(C(=O)NC(C)(C)c2cnc3ccccn23)C1` [Example 62], for which the EC50 in assay [1] worked out at 0.011 µM. For the same compound, the figures for the IC50 (against Human NMT1 (HsNMT1); in assay [2]) were 0.005 µM and 0.006 µM, respectively.

As for `CC1CN(c2ncc(F)c(N3CC(C(=O)NC(C)(C)c4cnc5ccccn45)C3)n2)C[C@@H](C)N1` (stereo partly shown) [Example 47], in assay [1], the EC50 amounted to 0.14 µM. The IC50 came out at 0.043 µM against Human NMT1 (HsNMT1) and 0.0122 µM in assay [2].

`C[C@H]1CN(c2ncc(F)c(N3CC(C(=O)NC(C)(C)c4cnc5ccccn45)C3)n2)CCN1C` [Example 82, 1-{2-[(3S)-3,4-dimethylpiperazin-1-yl]-5-fluoropyrimidin-4-yl}-N-(2-{imidazo[1,2-a]pyridin-3-yl}propan-2-yl)azetidine-3-carboxamide]: in assay [1], the EC50 is 0.094 µM. Further, the figures for the IC50 (at Human NMT1 (HsNMT1); in assay [2]) were 0.1 µM and 0.043 µM, respectively.

On to `CN1CCCN(c2nc3c(c(N4CC(C(=O)NC(C)(C)c5cnc6ccccn56)C4)n2)CCC3)CC1` [Example 114, N-(2-(imidazo[1,2-a]pyridin-3-yl)propan-2-yl)-1-(2-(4-methyl-1,4-diazepan-1-yl)-6,7-dihydro-5H-cyclopenta[d]pyrimidin-4-yl)azetidine-3-carboxamide], for which, in the assay with SU-DHL-10 cells (SU-DHL10, CellTiter-Glo, 48 h), the EC50 was found to be 0.065 µM.

In the case of `CC(NC(=O)C1CN(c2nc(N3CCNCC3)ncc2Cl)C1)c1cnc2ccccn12` (stereo not shown) [Example 30], the EC50 in assay [1] was 0.96 µM. In addition, the IC50 on Human NMT1 (HsNMT1) was determined as 0.026 µM; in assay [2], 0.0085 µM.

Turning to `CC1CN(c2ncc(Cl)c(N3CC(C(=O)NCc4cnc5ccccn45)C3)n2)CCN1` (stereo not shown) [Example 29], the EC50 in assay [1] is 0.62 µM. For the same compound, the 50% inhibitory concentration (IC50) against Human NMT1 (HsNMT1) stood at 0.079 µM; in assay [2] it was 0.018 µM.

With `CN1CCC(N(C)c2ncc(F)c(N3CC(C(=O)NC(C)(C)c4cnc5ccccn45)C3)n2)C1` (stereo not shown) [Example 58], the concentration for a half-maximal effect (EC50) in assay [1] is 0.41 µM. In addition, the half-maximal inhibitory concentration (IC50) was 0.037 µM against Human NMT1 (HsNMT1) and 0.013 µM in assay [2].

With `Cc1nc(N2CCCN(C)CC2)nc(N2CC(C(=O)NC(C)(C)c3cnc4ccccn34)C2)c1Cl` [Example 115, 1-(5-chloro-6-methyl-2-(4-methyl-1,4-diazepan-1-yl)pyrimidin-4-yl)-N-(2-(imidazo[1,2-a]pyridin-3-yl)propan-2-yl)azetidine-3-carboxamide], the EC50 in the assay on SU-DHL-10 cells (SU-DHL10, CellTiter-Glo, 48 h) worked out at 0.054 µM.

Values taken from patent US20240166643A1, “IMIDAZO[1,2-A]PYRIDINE COMPOUNDS AND THEIR USE IN THERAPY” (Imperial College Innovations Limited, priority 2020, published 2024).
